Data published in ChEMBL document CHEMBL1127849, “Benzisoxazole- and benzisothiazole-3-carboxamides as potential atypical antipsychotic agents” (J Med Chem, 1994).

Assays:
[1] = molecular target: 5-hydroxytryptamine receptor 2A (Rattus norvegicus, UniProt P14842); experiment: In vitro affinity towards 5-hydroxytryptamine 2A receptor using [3H]spiroperidol as radioligand in cortex
[2] = molecular target: T1, Adrenergic receptor alpha-1 (Rattus norvegicus, UniProt P15823+P23944+P43140); experiment: Its affinity towards alpha-1 receptor using [3H]WB-4101 as radioligand in whole brain minus cerebellum; format: tissue-based
T1 sequence (P15823 whole entry): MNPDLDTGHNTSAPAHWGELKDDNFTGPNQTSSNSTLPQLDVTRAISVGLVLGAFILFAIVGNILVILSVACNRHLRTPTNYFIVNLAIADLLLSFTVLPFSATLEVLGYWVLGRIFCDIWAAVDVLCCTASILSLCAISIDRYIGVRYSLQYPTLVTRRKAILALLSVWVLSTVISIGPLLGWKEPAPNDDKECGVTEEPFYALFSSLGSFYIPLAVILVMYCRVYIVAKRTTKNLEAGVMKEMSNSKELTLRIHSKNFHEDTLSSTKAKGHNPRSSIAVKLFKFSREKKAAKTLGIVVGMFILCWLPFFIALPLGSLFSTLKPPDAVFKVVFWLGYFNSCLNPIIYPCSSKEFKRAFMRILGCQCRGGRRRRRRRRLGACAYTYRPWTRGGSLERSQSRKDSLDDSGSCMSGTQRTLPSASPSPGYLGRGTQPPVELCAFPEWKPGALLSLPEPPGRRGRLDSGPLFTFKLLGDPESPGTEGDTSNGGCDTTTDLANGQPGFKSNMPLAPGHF
T1 sequence (P23944 whole entry): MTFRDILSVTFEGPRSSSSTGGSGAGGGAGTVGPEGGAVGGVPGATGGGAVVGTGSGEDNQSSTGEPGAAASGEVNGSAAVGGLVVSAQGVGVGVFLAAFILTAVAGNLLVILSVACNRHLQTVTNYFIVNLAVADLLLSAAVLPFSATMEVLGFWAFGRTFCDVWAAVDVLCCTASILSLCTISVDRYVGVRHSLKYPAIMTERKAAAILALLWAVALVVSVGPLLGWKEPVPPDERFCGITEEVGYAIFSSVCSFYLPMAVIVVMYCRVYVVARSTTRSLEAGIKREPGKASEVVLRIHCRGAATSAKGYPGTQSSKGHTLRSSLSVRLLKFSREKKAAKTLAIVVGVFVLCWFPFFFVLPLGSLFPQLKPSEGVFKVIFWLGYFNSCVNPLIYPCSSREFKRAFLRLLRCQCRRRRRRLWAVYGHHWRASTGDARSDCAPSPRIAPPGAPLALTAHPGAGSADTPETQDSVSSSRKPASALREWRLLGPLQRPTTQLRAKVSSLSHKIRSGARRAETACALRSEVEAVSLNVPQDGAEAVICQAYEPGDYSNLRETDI
T1 sequence (P43140 whole entry): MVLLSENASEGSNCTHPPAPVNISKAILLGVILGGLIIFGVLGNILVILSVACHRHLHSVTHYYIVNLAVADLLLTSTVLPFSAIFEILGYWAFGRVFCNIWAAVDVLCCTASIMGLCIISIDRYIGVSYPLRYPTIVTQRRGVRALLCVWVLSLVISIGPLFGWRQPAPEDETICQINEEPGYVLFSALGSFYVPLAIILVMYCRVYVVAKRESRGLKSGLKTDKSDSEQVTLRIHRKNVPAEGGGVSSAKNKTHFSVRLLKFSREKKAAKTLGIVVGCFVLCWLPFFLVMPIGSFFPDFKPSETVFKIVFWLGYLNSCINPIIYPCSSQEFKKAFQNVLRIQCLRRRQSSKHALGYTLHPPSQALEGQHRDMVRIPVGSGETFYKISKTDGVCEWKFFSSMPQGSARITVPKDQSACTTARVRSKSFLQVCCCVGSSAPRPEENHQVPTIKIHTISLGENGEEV

Rattus norvegicus [3] = experiment: Compound was evaluated in vivo for its antipsychotic activity for inhibition of apomorphine-induced stereotypy in rat after intraperitoneal administration at a dose of 40 mg/kg; format: functional; conditions: ip
[4] = molecular target: T2, 5-hydroxytryptamine receptor 1A (Rattus norvegicus, UniProt P19327); experiment: In vitro affinity towards 5-hydroxytryptamine 1A receptor using [3H]8-OH-DPAT as radioligand in hippocampus; format: tissue-based
T2 sequence (P19327 whole entry): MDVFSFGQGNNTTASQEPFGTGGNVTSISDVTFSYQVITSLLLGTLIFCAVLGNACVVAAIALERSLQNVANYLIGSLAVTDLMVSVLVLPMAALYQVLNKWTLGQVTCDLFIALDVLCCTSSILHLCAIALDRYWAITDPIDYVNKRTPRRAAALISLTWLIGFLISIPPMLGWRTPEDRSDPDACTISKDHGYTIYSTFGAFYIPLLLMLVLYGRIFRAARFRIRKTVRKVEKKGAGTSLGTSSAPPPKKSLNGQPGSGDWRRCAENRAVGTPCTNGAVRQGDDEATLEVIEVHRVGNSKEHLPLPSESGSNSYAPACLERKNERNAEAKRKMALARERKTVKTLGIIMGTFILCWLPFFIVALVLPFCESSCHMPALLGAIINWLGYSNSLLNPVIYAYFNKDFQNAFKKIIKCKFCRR

Mus musculus [5] = experiment: In vivo effective dose for inhibition of apomorphine-induced climbing in mice after intraperitoneal administration at a dose 20 mg/kg; format: functional; conditions: ip
Rattus norvegicus [6] = experiment: Compound was evaluated in vivo for its antipsychotic activity for inhibition of apomorphine-induced stereotypy in rat; format: functional
Rattus norvegicus [7] = experiment: Compound was evaluated in vivo for its antipsychotic activity for inhibition of apomorphine-induced stereotypy in rat after intraperitoneal administration of a dose of 40 mg/kg; format: functional; conditions: ip
Rattus norvegicus [8] = experiment: Compound was evaluated in vivo for its antipsychotic activity for inhibition of apomorphine-induced stereotypy in rat after intraperitoneal administration of a dose of 10 mg/kg; format: functional; conditions: ip
Rattus norvegicus [9] = experiment: Compound was evaluated in vivo for its antipsychotic activity for inhibition of apomorphine-induced stereotypy in rat after intraperitoneal administration of a dose of 40 mg/kg value represented as percent inhibition; format: functional; conditions: ip
Rattus norvegicus [10] = experiment: Compound evaluated in vivo for its antipsychotic activity for inhibition of apomorphine-induced stereotypy in rat after intraperitoneal administration of a dose of 13 mg/kg; format: functional; conditions: ip
Mus musculus [11] = experiment: In vivo for its effective dose for inhibition of apomorphine-induced climbing in mice after intraperitoneal administration at a dose 20 mg/kg; format: functional; conditions: ip
Rattus norvegicus [12] = experiment: Compound was evaluated in vivo for its antipsychotic activity for inhibition of apomorphine-induced stereotypy in rat after intraperitoneal administration of a dose of 13 mg/kg; format: functional; conditions: ip

Chain of 5-hydroxytryptamine receptor 2A (P14842 whole entry): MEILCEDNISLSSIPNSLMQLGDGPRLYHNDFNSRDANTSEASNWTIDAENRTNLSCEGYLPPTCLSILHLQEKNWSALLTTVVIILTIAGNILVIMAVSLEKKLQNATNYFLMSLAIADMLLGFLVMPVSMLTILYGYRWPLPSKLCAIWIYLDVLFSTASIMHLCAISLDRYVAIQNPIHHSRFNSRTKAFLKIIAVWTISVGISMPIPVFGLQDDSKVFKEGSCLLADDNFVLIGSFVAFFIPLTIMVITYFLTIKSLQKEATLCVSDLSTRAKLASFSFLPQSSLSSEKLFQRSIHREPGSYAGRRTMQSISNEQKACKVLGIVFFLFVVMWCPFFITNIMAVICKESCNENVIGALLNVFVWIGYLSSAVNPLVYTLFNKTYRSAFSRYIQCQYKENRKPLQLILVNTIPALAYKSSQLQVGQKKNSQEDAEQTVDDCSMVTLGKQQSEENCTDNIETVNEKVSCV

Compound	IC50 [1] [nM]	IC50 [2] [nM]	IC50 [4] [nM]	ED50 (Mus musculus [5]) [mg/kg]	other results
CN1CCN(CCNC(=O)c2nsc3ccccc23)CC1	> 10000	> 10000	> 10000	> 20	
O=C(NCCN1CCC(c2noc3cc(Cl)ccc23)CC1)c1nsc2ccccc12	215	239	3450	> 20	
O=C(NCCN1CCC(C(=O)c2ccc(F)cc2)CC1)c1nsc2ccccc12	17	15.7	920	3.64	ED50 (Rattus norvegicus [6]): 25.7 mg/kg
COc1ccccc1N1CCN(CCCCNC(=O)c2nsc3ccccc23)CC1	724	6.4	2.3	7.24	inhibition in vivo at 40 mg/kg (Rattus norvegicus [9]): 83%
COc1ccccc1N1CCN(CCNC(=O)c2nsc3ccccc23)CC1	550	4.1	3.9		ED50 (Rattus norvegicus [6]): 51.8 mg/kg
O=C(NCCN1CCC(n2c(O)nc3ccccc32)CC1)c1nsc2ccccc12	641	39.8		> 20	
O=C(NCCN1CCN(c2csc3cc(F)ccc23)CC1)c1noc2ccccc12	309	> 10000	1040		inhibition in vivo at 40 mg/kg (Rattus norvegicus [7]): 17%
CN(CCCN1CCC(C(=O)c2ccc(F)cc2)CC1)C(=O)c1noc2ccccc12	123	43	6650	> 20	
CC(C)N(CCN1CCC(c2noc3cc(F)ccc23)CC1)C(=O)c1noc2ccccc12	29.7	5.5		1.3	
CN(CCCN1CCC(C(=O)c2ccc(F)cc2)CC1)C(=O)c1nsc2ccccc12	68	6.11	4670	7.7	
COc1ccccc1N1CCN(CCCN(C)C(=O)c2nsc3ccccc23)CC1	1650	10.7	149	> 20	
CN(CCN1CCC(c2noc3cc(F)ccc23)CC1)C(=O)c1noc2ccccc12	17.6	104	440	1.3	inhibition in vivo at 13 mg/kg (Rattus norvegicus [12]): 33%
CN(CCCCN1CCN(c2csc3cc(F)ccc23)CC1)C(=O)c1noc2ccccc12	188	3.2	128		ED50 (Rattus norvegicus [6]): 52 mg/kg
CN(CCCCN1CCN(c2csc3cc(F)ccc23)CC1)C(=O)c1nsc2ccccc12	232	6.3	366		ED50 (Rattus norvegicus [6]): 33 mg/kg
CN(CCN1CCC(C(=O)c2ccc(F)cc2)CC1)C(=O)c1nsc2ccccc12	51	75.3	2500	8	
CN(CCN1CCC(C(=O)c2ccc(F)cc2)CC1)C(=O)c1noc2ccccc12	27	108.2	1790	13.4	
CN1CCN(C2=Nc3cc(Cl)ccc3Nc3ccccc32)CC1 [CLOZAPINE]					inhibition in vivo at 40 mg/kg (Rattus norvegicus [7]): 33%
Cc1nc2n(c(=O)c1CCN1CCC(c3noc4cc(F)ccc34)CC1)CCCC2 [RISPERIDONE]				0.062	ED50 (Rattus norvegicus [6]): 3.2 mg/kg

Second part, led by results:

IC50 [1] [nM]	IC50 [2] [nM]	IC50 [4] [nM]	Compound	ED50 (Mus musculus [5]) [mg/kg]	other results
201	5	18	O=C(NCCCCN1CCN(c2nsc3ccccc23)CC1)c1nsc2ccccc12		inhibition in vivo at 40 mg/kg (Rattus norvegicus [3]): 17%
	2570	1880	O=C(NCCN1CCN(Cc2ccccc2)CC1)c1nsc2ccccc12	> 20	
	3.3	4	COc1ccccc1N1CCN(CCCCN(C)C(=O)c2nsc3ccccc23)CC1	9.61	inhibition in vivo at 40 mg/kg (Rattus norvegicus [7]): 100%
13	174	160	CN(CCCCN1CCC(c2noc3cc(F)ccc23)CC1)C(=O)c1nsc2ccccc12		inhibition in vivo at 10 mg/kg (Rattus norvegicus [8]): 67%
726	81.5	51.6	O=C(NCCN1CCN(c2cccc(Cl)c2)CC1)c1nsc2ccccc12	> 20	
475	19	98	O=C(NCCN1CCN(c2nsc3ccccc23)CC1)c1nsc2ccccc12	> 20	
30.2	3.2	339	CN(CCCCN1CCC(C(=O)c2ccc(F)cc2)CC1)C(=O)c1nsc2ccccc12	8.2	inhibition in vivo at 40 mg/kg (Rattus norvegicus [7]): 60%
32.8	9.4	820	CN(CCN1CCC(c2noc3cc(F)ccc23)CC1)C(=O)c1nsc2ccccc12	1.7	inhibition in vivo at 13 mg/kg (Rattus norvegicus [10]): 50%
391	2.1	21	COc1ccccc1N1CCN(CCNC(=O)c2noc3ccccc23)CC1	> 20	
3110	18.3	84.7	COc1ccccc1N1CCN(CCCNC(=O)c2nsc3ccccc23)CC1	13	inhibition in vivo at 40 mg/kg (Rattus norvegicus [7]): 17%
13	5.8	18.6	CN(CCCCN1CCN(c2nsc3ccccc23)CC1)C(=O)c1nsc2ccccc12		ED50 (Rattus norvegicus [6]): 39.2 mg/kg; ED50 (Mus musculus [11]): 2.49 mg/kg
115	93.8	3720	O=C(NCCCN1CCC(c2noc3cc(Cl)ccc23)CC1)c1nsc2ccccc12	> 20	
290	124	2300	CC(C)N(CCCN1CCC(C(=O)c2ccc(F)cc2)CC1)C(=O)c1noc2ccccc12	20.2	
